Entries after “also recorded” stand apart in the source; their conditions may differ.
Experiments:
HCT116 = assay: MTT cell viability assay; type: cell-based, human; details: Homo sapiens, HCT-116, HCT116 colorectal cancer cells
Description: (§1) The human colorectal cancer cell lines, HCT116 and LoVo, the breast cancer cell line, T47D, the hepatocellular carcinoma cell line, HepG2, the normal human liver cell line, HL7702, human umbilical vein endothelial cells (HUVECs), and the non-small cell lung cancer cell lines, A549, H1993, HCC827, H460, were purchased from the American Type Culture Collection (Manassas, VA, United States). Cell lines were cultured in the recommended RPMI-1640 medium (AE24464298, Hyclone, United States) and DMEM medium (AE29422278, Hyclone, United States) supplemented with 10% fetal bovine serum (FBS; JC63470, FB15015, Clark, United States) with 1% penicillin-streptomycin. Cells were maintained in an incubator at 37°C with 5% CO2 (HF90,Sanyo, Japan) and passaged every 48–72 h, after detaching with 0.25% trypsin (Sigma, United States). The compounds ZLDI-8 and NY-1 to -15 were synthesized in the laboratory of Dr. Huaiwei Ding in Shenyang Pharmaceutical University, and verified by high-performance liquid chromatography (purity >95%) for use in experiments (Supplementary Figure S1). Paclitaxel was purchased from MedChemExpress (HY-B0015, 99.97% purity, United States).
(§2) Cell viability was measured by the MTT assay. HCT116, HL7702, A549, H1993, HCC827, and H460 cells were dispensed into 96-well plates at a density of 1 × 10^5 cells/mL. After 24–48 h incubation, cells were treated with the compounds at different concentrations for the indicated periods. An assay kit (WLA073, Wanlei Co., Liaoning, China), was used according to the manufacturer’s instructions to measure LDH activity, The absorbance at 450 nm was measured with a microplate reader (Elx-800, Bio-Rad, China).
(§3) The preliminary antitumor activity of the series of ZLDI-8 derivatives, NY-1 to -15 was screened by the MTT cell viability assay. […] The antitumor activity of NY-2 on HCT116 cells was concentration- and time-dependent, and slightly better than that of the original compound, ZLDI-8.

HepG2 = assay: MTT cell viability assay; type: cell-based, human; details: Homo sapiens, HepG2 hepatocellular carcinoma cells
Description: as §1, §2, §3

[1] = Tissue distribution in rats; type: in vivo, SD rats; details: for blood-brain barrier penetration: rat brain tissue concentration very low; for order of concentrations in tissues: 5 min after administration
Description: After fasting for 12 h, 32 SD rats were randomly divided into eight groups of four rats each. Four groups were injected with ZLDI-8 via tail vein (6 mg/kg) at 5 min, 12, 24, and 48 h. The other four groups were injected with NY-2 (6 mg/kg) at the same time points. The heart, liver, spleen, lung, kidney, brain, muscle, and intestines were collected after cervical dislocation at the specified time points and tissue samples were removed. Samples were rinsed with normal saline at 0°C to remove residual blood and debris, blotted dry with filter paper, weighed, and stored at ˗20°C until used.

H460 = assay: MTT cytotoxicity assay, NSCLC cells; type: cell-based; details: Homo sapiens, NCI-H460, 48 h
Description: as §1, §2
(§4) First, the effects of NY-2 and ZLDI-8 on the survival rates of four NSCLC cell lines, A549, H1993, HCC827, H460, were compared by the MTT cytotoxicity assay. The various types of NSCLC cells were incubated with increasing concentrations of NY-2 and ZLDI-8 (1.25, 2.5, 5, 10, and 20 μM), and the cell viability at 48 h was measured. […] Considering that the culture time might be too long, NY-2 was selected for 48 h treatment at increasing concentrations of 2.5, 5.0, and 10 μM as the experimental conditions for subsequent in vitro experiments.

A549 = assay: MTT cytotoxicity assay, NSCLC cells; type: cell-based; details: Homo sapiens, 48 h
Description: as §1, §2, §4

H1993 = assay: MTT cytotoxicity assay, NSCLC cells; type: cell-based; details: Homo sapiens, NCI-H1993, 48 h
Description: as §1, §2, §4

HCC827 = assay: MTT cytotoxicity assay, NSCLC cells; type: cell-based; details: Homo sapiens, 48 h
Description: as §1, §2, §4

[2] = tested on: normal human liver cell line, HL7702; assay: MTT cytotoxicity on normal cells; type: cell-based; details: 48 h; for cytotoxic effects on normal liver cells (HL7702): concentration ≤10 μM
Description: as §1, §2
First, the effects of NY-2 and ZLDI-8 on the survival rates of four NSCLC cell lines, A549, H1993, HCC827, H460, were compared by the MTT cytotoxicity assay. The various types of NSCLC cells were incubated with increasing concentrations of NY-2 and ZLDI-8 (1.25, 2.5, 5, 10, and 20 μM), and the cell viability at 48 h was measured. […]

Structure (SMILES)	IC50 (HCT116) [µM]	IC50 (HepG2) [µM]	blood-brain barrier penetration [1]	concentration in the brain ([1]; rat, tail vein 6 mg/kg)	tissue with the highest concentration ([1]; rat, tail vein 6 mg/kg)	order of concentrations in tissues ([1]; rat, tail vein 6 mg/kg)	IC50 (H460) [µM]	IC50 (A549) [µM]	IC50 (H1993) [µM]	IC50 (HCC827) [µM]	cytotoxic effects on normal liver cells (HL7702) [2]	toxic effects on normal liver cells (HL7702) ([2]; concentrations >10 μM)
Cc1c(C=C2C(=O)NC(=S)NC2=O)c2ccccc2n1CCOc1ccc(F)cc1 [NY-2]	5.35	20	do not readily penetrate the blood-brain barrier	almost zero	highest in the lung	lung > liver > spleen > heart > kidney > intestines > brain > muscle	13.5 ± 0.58	8.95 ± 0.58	4.78 ± 0.64	5.98 ± 0.75	neither ZLDI-8 nor NY-2 had any obvious cytotoxic effects on normal cells; also recorded: no obvious cytotoxic effects	slightly weaker toxic effects than ZLDI-8
Cc1ccc(OCCn2c(C)c(C=C3C(=O)NC(=S)NC3=O)c3ccccc32)c(C)c1 [ZLDI-8, reference compound]	7.72	22.9	do not readily penetrate the blood-brain barrier	almost zero	–	lung > liver > spleen > heart > kidney > intestines > brain > muscle	25.2 ± 2	23.1 ± 2.27	8.33 ± 1.01	9.39 ± 0.99	neither ZLDI-8 nor NY-2 had any obvious cytotoxic effects on normal cells	–

Source: PMC9884808, “Pharmacokinetics, tissue distribution, and antitumor activity of a novel compound, NY-2, in non-small cell lung cancer” (Frontiers in Pharmacology, 2023)
